The results in this text go back to ChEMBL document CHEMBL1201862, “PubChem BioAssay data set” (2004).

Among the test systems are SNB-78; LXFL 529; XF498; M19-MEL; DLD-1; DU-145; RXF 631; MCF7; Hs-578T.
What all share (experiment): NCI anticancer screen, dose series, 48 h

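Protocol summary: plate cells (96-well), add compound at 5 concentrations, incubate 48 h, interpolate endpoints linearly. GI50 is the concentration that inhibits growth by half.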 The source made the active and inactive calls. No stated cut-off is given here; in the data, active = GI50 up to about 1.1 µM and inactive = higher. Where only a bound is given, the exact number is not on record here.

`O=C(/C=C/c1c(O)ccc2ccccc12)c1cccc2ccccc12`: the GI50 was > 100 µM (inactive) in the test with SNB-78; > 83.6 µM (inactive) with LXFL 529; > 100 µM (inactive) in the test with XF498; 26.1 µM (inactive) in the test on M19-MEL; > 79.4 µM (inactive) with DLD-1.

Turning to `CC1=NN(C(=O)Cc2ccccc2)C(=O)/C1=C\c1ccco1`, the GI50 in the test with SNB-78, in the test with XF498, in the test with M19-MEL and in the test with DLD-1 was > 100 µM (inactive) throughout.

On to `COc1ccc2c(c1)[n+]([O-])c(/C(C)=N/NC(N)=S)c(C)[n+]2[O-]`, for which the GI50 with SNB-78 was > 100 µM (inactive); in the test on LXFL 529 it was 51.6 µM (inactive); in the test with DU-145 it was 44.2 µM (inactive); in the test with RXF 631, 44.4 µM (inactive); in the test on XF498, 39 µM (inactive); in the test on MCF7, 41.4 µM (inactive). For the same compound, the results for the GI50 with M19-MEL, with DLD-1 and with Hs-578T were 86.9 µM (inactive), 57.9 µM (inactive) and > 100 µM (inactive), respectively.

Consider `COc1ccc(C2C3CCCC(C3=O)C(c3ccc(OC)cc3)N2N=O)cc1` (stereo not given), for which the GI50 with SNB-78 was > 66.4 µM (inactive); in the test on XF498 it was 33.7 µM (inactive); with MCF7 it was 18.8 µM (inactive); in the test on M19-MEL it was 32.4 µM (inactive); in the test on DLD-1, 33.9 µM (inactive).

Take `OCC12C=CC(C1)c1ccccc12` (stereo not given): the GI50 with LXFL 529, in the test on RXF 631, with M19-MEL and in the test on DLD-1 was > 100 µM (inactive) each time.

With `CCOC(=O)C(=O)Nc1cc(Cl)ccc1Cl`, the GI50 in the test on LXFL 529, with XF498, with M19-MEL and in the test on DLD-1 was > 100 µM (inactive) in each case.

As for `N#CC(Nc1cccc(C(F)(F)F)c1)c1ccccc1C(F)(F)F` (stereo not given), the GI50 in the test on SNB-78 is 20.1 µM (inactive); in the test with LXFL 529, 6.17 µM (inactive); in the test on XF498, 3.94 µM (inactive); with M19-MEL, 7.23 µM (inactive); with DLD-1 it was 15.9 µM (inactive).

As to `CCCCCCCCCCCCCCCCCCC1=C(O)C(=O)C=C(OC)C1=O`, the GI50 with SNB-78 was 71.9 µM (inactive); in the test on LXFL 529 it was 29.6 µM (inactive); in the test on XF498, > 100 µM (inactive); with M19-MEL, 39.1 µM (inactive); with DLD-1, 47.3 µM (inactive).

As for `COc1cccc2c1C(=O)c1c(O)c3c(c(O)c1C2=O)C[C@@](O)(C(C)=O)CC3S(=O)(=O)O` (stereo not given in full), the GI50 in the test with SNB-78 is > 94.2 µM (inactive); with LXFL 529, > 100 µM (inactive); in the test with RXF 631 it was > 100 µM (inactive); with XF498 it was > 100 µM (inactive); in the test with M19-MEL it was > 100 µM (inactive); in the test on DLD-1, > 100 µM (inactive).

As for `CCCCCCCC(=O)OC[C@@H](C[As](=O)(O)O)OC(=O)CCCCCCC`, the GI50 in the test on SNB-78 is 10.4 µM (inactive); in the test with LXFL 529, 11.9 µM (inactive); in the test on M19-MEL, 14.9 µM (inactive); with DLD-1, 13.6 µM (inactive).

`Cc1ccc(S(=O)(=O)C2=c3ncccc3=C3C(=O)c4ccccc4C(=O)C32)cc1` (stereo not given): the GI50 is > 100 µM (inactive) in the test on SNB-78; 83.8 µM (inactive) in the test with LXFL 529; > 100 µM (inactive) in the test on DU-145; > 71.9 µM (inactive) with MCF7; < 0.01 µM (active) in the test with M19-MEL; < 0.01 µM (active) in the test on DLD-1. For the same compound, in the test with Hs-578T, the GI50 is 22.6 µM (inactive).

Turning to `Cc1ccc(SC(CCC(Sc2ccc(C)cc2)Sc2ccc(C)cc2)Sc2ccc(C)cc2)cc1`, the GI50 in the test on SNB-78, in the test on RXF 631, with XF498, in the test on M19-MEL and in the test on DLD-1 was > 100 µM (inactive) in each case.

As for `CSCC[C@@H]1C(=O)N(C)[C@H](C(C)(C)C)N1C(=O)c1ccccc1`, the GI50 in the test on SNB-78, in the test on XF498, with MCF7, with M19-MEL and with DLD-1 was > 100 µM (inactive) throughout.

Consider `NC1=NN(c2ccccc2)C(=O)C1C(=O)C(=O)Nc1ccc(Cl)cc1` (stereo not given), for which the GI50 in the test on SNB-78, with LXFL 529, in the test with RXF 631, in the test on M19-MEL and with DLD-1 was > 100 µM (inactive) throughout.

Take `CC(C)c1cccc(C(C)C)c1NC(=O)C(=O)C1CCC2=C(Sc3ccccc3N2)C1=O` (stereo not given): the GI50 was > 100 µM (inactive) in the test with SNB-78; 44.2 µM (inactive) with LXFL 529; 4.18 µM (inactive) in the test on RXF 631; > 100 µM (inactive) in the test on M19-MEL; > 100 µM (inactive) in the test on DLD-1.

`N#CC1=C(N)n2c(s/c(=C\c3ccc(Cl)cc3)c2=O)=C(c2nc3ccccc3[nH]2)C1c1ccc(Cl)cc1` (stereo not given): the GI50 with LXFL 529 was 1.9 µM (inactive); in the test on XF498, 1.63 µM (inactive); in the test on M19-MEL, 3.04 µM (inactive); in the test with DLD-1, 3.65 µM (inactive).

On to `CCCNC(=O)Nc1c([N+](=O)[O-])cc(C(F)(F)F)cc1[N+](=O)[O-]`, for which the GI50 in the test with SNB-78 is 82.8 µM (inactive); in the test on LXFL 529 it was 55.2 µM (inactive); in the test on RXF 631, 12.7 µM (inactive); in the test on XF498, 35.6 µM (inactive); in the test on M19-MEL it was 42.8 µM (inactive).

Consider `O=C1c2ccccc2C(=O)C1(O)c1c[nH]c2ccccc12`, for which the GI50 in the test with SNB-78, in the test with LXFL 529, with RXF 631, with XF498, in the test with M19-MEL and in the test on DLD-1 was > 100 µM (inactive) throughout.

Consider `CC1=C[C@]2(O)C(=O)[C@H](C)C[C@H]3[C@@H](CC[C@@](C)(O)/C=C\2C1=O)C3(C)C`, for which the GI50 in the test on SNB-78 was 26.2 µM (inactive); in the test on LXFL 529, 16.8 µM (inactive); in the test with RXF 631, 31.1 µM (inactive); in the test with XF498, 16.3 µM (inactive); in the test with M19-MEL it was 18.5 µM (inactive); with DLD-1, 17.5 µM (inactive).

Turning to `Cc1cc(C)nc(NS(=O)(=O)c2ccc(Nc3c4ccccc4nc4c(C(=O)Nc5ccc(S(=O)(=O)Nc6cc(C)on6)cc5)cccc34)cc2)n1`, the GI50 was 30.9 µM (inactive) in the test with SNB-78; 17.9 µM (inactive) with LXFL 529; 22.5 µM (inactive) with XF498; 23.4 µM (inactive) in the test on M19-MEL; 28.1 µM (inactive) in the test on DLD-1.

As to `CC1=CCC2(C#N)CCC1C2O` (stereo not given), the GI50 in the test with SNB-78, in the test with LXFL 529, in the test on XF498, with M19-MEL and in the test with DLD-1 was > 100 µM (inactive) throughout.

For `COc1cc2c(cc1OC)C(=O)Cc1ccc3c(c1CNCC2)OCO3`, the GI50 in the test with SNB-78, with LXFL 529, in the test with XF498, with M19-MEL and in the test on DLD-1 was > 100 µM (inactive) each time.

As to `CC1=C(C(=O)Nc2cccc(Cl)c2)C(c2ccccc2F)C(C(=O)Nc2cccc(Cl)c2)=C(C)N1`, the GI50 in the test with SNB-78 was 18.7 µM (inactive); in the test on LXFL 529, 8.11 µM (inactive); in the test on RXF 631 it was 10.1 µM (inactive); in the test with M19-MEL it was 11.6 µM (inactive); in the test on DLD-1 it was 10.4 µM (inactive).

Turning to `CCC1(O)C[C@H]2CN(CCCc3c([nH]c4ccccc34)[C@@](C(=O)OC)(c3cc4c(cc3OC)N(C)C3[C@](O)(C(=O)OC)[C@H](OC(C)=O)[C@]5(CC)C=CCN6CC[C@]43[C@H]65)C2)C1` (stereo not given in full), the GI50 was 0.543 µM (active) in the test on SNB-78, 0.581 µM (active) with LXFL 529, 0.902 µM (active) in the test on M19-MEL and 2.22 µM (inactive) in the test with DLD-1.

`CCC1CN2CCC3(c4ccccc4)CC(C(=O)OC)=CC1C23` (stereo not given): the GI50 was 19.3 µM (inactive) with SNB-78; 15.4 µM (inactive) in the test with LXFL 529; 15 µM (inactive) with RXF 631; 0.183 µM (active) in the test on XF498; 17.1 µM (inactive) with M19-MEL; 17.2 µM (inactive) with DLD-1.

For `COc1ccc(-c2ccc(CC(=O)O)cc2)cc1OC`, the GI50 in the test on SNB-78 was > 100 µM (inactive); with LXFL 529, > 100 µM (inactive); in the test with XF498, 20.7 µM (inactive); in the test on M19-MEL, > 100 µM (inactive); with DLD-1, > 100 µM (inactive).

Take `CCOC(=O)C(CC(C)C)NC(=O)C(Cc1ccc(N(CCCl)CCCl)cc1)NC(C)=O` (stereo not given): the GI50 in the test with SNB-78 is 3.93 µM (inactive); in the test on LXFL 529, 12.4 µM (inactive); with DU-145, 5.93 µM (inactive); in the test on XF498, 0.406 µM (active); with MCF7, 3.69 µM (inactive); with M19-MEL it was 3.84 µM (inactive). In addition, in the test with Hs-578T, the GI50 is 5.12 µM (inactive).

Turning to `C=CCCC(=O)CC(=O)OCc1ccccc1`, the GI50 in the test on SNB-78, with LXFL 529, with RXF 631, in the test on XF498, in the test on M19-MEL and in the test on DLD-1 was > 100 µM (inactive) throughout.

Consider `CCCCCCCC/C=C/CCCCCCCC(=O)N(O)C1CC(n2cc(C)c(=O)[nH]c2=O)OC1CO` (stereo not given), for which the GI50 is 18 µM (inactive) in the test on SNB-78, 10.6 µM (inactive) in the test with LXFL 529, 5.3 µM (inactive) in the test on M19-MEL and 6.4 µM (inactive) in the test with DLD-1.

Consider `COc1ccccc1/N=N/c1c(-c2ccccc2)nn(C(=O)CC(=O)Nc2ccccc2Cl)c1-c1ccccc1`, for which the GI50 with SNB-78, in the test with LXFL 529, with XF498, with M19-MEL and in the test on DLD-1 was > 100 µM (inactive) throughout.

Turning to `CC(C)[C@@H](C)CC[C@@H](C)C1CC=C2[C@@H]3CCC4C[C@@H](O[Si](C)(C)C(C)(C)C)CC[C@]4(C)C3CC[C@@]21C` (stereo not given in full), the GI50 in the test on SNB-78, with LXFL 529, in the test with RXF 631 and with M19-MEL was > 100 µM (inactive) throughout.
